Data published in US20230382889A1 (Volastra Therapeutics, Inc., priority 2022, published 2023).

Molecular target: hKIF18A (1-374) (Homo sapiens (Human), UniProt Q8NI77)
Assay: Inhibition of KIF18A microtubule-dependent ATPase activity (ADP-Glo)
Assay type: biochemical
Conditions: 4 nM hKIF18A (1-374)
Experimental: Test compounds were plated in a 3× dilution scheme in a 384-well plate. Assay buffer: 80 mM PIPES (pH 6.9), 1 mM MgCl2, 75 mM KCl, 1 mM EGTA, 1 mM DTT, 0.01% BSA, 0.005% Tween-20, 1 μM Taxol in H2O. […] After incubation at room temperature for 30 min, 2.5 μL of microtubule mix was added [0.2 mg/mL pre-formed microtubules, 2.0 mM ATP in assay buffer], the plate was centrifuged for 30 s and then incubated at 28° C. for 60 min. 5 μL of Promega® ADP-Glo Max R1 was added, the plate was centrifuged for 30 s, and the mixture incubated for 4 h at room temperature. 10 μL of Promega® ADP-Glo Max R2 was added, the plate centrifuged for 30 s, and incubated for 60 min at room temperature. Luminescence was measured with an Envision plate reader, and % Inhibition was calculated for each well as: ([max−min]−[test−min])/[max−min]. IC50 values were calculated from concentration vs. % Inhibition data via a four-parameter variable slope model.

hKIF18A (1-374), sequence (Q8NI77 1-374): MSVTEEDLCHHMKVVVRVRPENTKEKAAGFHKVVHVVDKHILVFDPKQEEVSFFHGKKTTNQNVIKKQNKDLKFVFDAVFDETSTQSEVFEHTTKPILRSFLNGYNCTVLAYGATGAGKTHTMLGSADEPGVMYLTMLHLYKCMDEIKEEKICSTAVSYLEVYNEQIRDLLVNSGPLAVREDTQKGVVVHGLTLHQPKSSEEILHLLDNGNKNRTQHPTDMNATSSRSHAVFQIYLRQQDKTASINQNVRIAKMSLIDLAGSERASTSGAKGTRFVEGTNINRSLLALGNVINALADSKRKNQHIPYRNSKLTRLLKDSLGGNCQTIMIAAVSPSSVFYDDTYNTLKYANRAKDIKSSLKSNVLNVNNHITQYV

SMILES	IC50 [nM]
CS(=O)(=O)Nc1ccc(-n2cc(-c3cccc(C(O)C4CCCC4)n3)nn2)c(N2CCC3(CC2)CC3)c1 (centres unmarked) [Compound 22, N-(4-(4-(6-(cyclopentyl(hydroxy)methyl)pyridin-2-yl)-1H-1,2,3-triazol-1-yl)-3-(6-azaspiro[2.5]octan-6-yl)phenyl)methanesulfonamide]	11
CS(=O)(=O)Nc1ccc(-n2cc(-c3cccc(N4CCC(F)(F)CC4)n3)nn2)c(N2CCCCCC2)c1 [Compound 52, N-(3-(azepan-1-yl)-4-(4-(6-(4,4-difluoropiperidin-1-yl)pyridin-2-yl)-1H-1,2,3-triazol-1-yl)phenyl)methanesulfonamide]	18
CCS(=O)(=O)Nc1ccc(-c2cn(-c3cc(C)cc(N4CCC(F)(F)CC4)n3)nn2)c(N2CCC3(CC2)CC3)c1 [Compound 108, N-(4-(1-(6-(4,4-difluoropiperidin-1-yl)-4-methylpyridin-2-yl)-1H-1,2,3-triazol-4-yl)-3-(6-azaspiro[2.5]octan-6-yl)phenyl)ethanesulfonamide]	63
CCS(=O)(=O)Nc1ccc(-n2cc(-c3cc(CO)cc(N4CCC(F)(F)CC4)n3)nn2)c(N2CCC3(CC2)CC3)c1 [Compound 131, N-(4-(4-(6-(4,4-difluoropiperidin-1-yl)-4-(hydroxymethyl)pyridin-2-yl)-1H-1,2,3-triazol-1-yl)-3-(6-azaspiro[2.5]octan-6-yl)phenyl)ethanesulfonamide]	29
Cc1cc(-c2cnc(-c3ccc(NS(C)(=O)=O)cc3N3CCC4(CC3)CC4)[nH]2)nc(N2CCC(F)(F)CC2)n1 [Compound 26, N-(4-(5-(2-(4,4-difluoropiperidin-1-yl)-6-methylpyrimidin-4-yl)-1H-imidazol-2-yl)-3-(6-azaspiro[2.5]octan-6-yl)phenyl)methanesulfonamide]	44
Cn1cc(-c2cn(-c3ccc(NS(=O)(=O)CCO)cc3N3CCC4(CC3)CC4)nn2)nc1N1CCC(F)(F)CC1 [Compound 119, N-(4-(4-(2-(4,4-difluoropiperidin-1-yl)-1-methyl-1H-imidazol-4-yl)-1H-1,2,3-triazol-1-yl)-3-(6-azaspiro[2.5]octan-6-yl)phenyl)-2-hydroxyethane-1-sulfonamide]	42
CS(=O)(=O)Nc1ccc(-n2cc(-c3cccc(N4CC5(CCC5)C4)n3)nn2)c(N2CCC3(CC2)CC3)c1 [Compound 57, N-(4-(4-(6-(2-azaspiro[3.3]heptan-2-yl)pyridin-2-yl)-1H-1,2,3-triazol-1-yl)-3-(6-azaspiro[2.5]octan-6-yl)phenyl)methanesulfonamide]	37
O=S(=O)(CCO)Nc1ccc(-n2cc(-c3ccc(F)c(C4=CCC(F)(F)CC4)n3)nn2)c(N2CCC3(CC2)CC3)c1 [Compound 162, N-(4-(4-(6-(4,4-difluorocyclohex-1-en-1-yl)-5-fluoropyridin-2-yl)-1H-1,2,3-triazol-1-yl)-3-(6-azaspiro[2.5]octan-6-yl)phenyl)-2-hydroxyethane-1-sulfonamide]	20
CS(=O)(=O)Nc1ccc(-n2cc(-c3ccc(F)c(N4CCC(F)(F)CC4)n3)nn2)c(N2CCC3(CC2)CC3)c1 [Compound 149, N-(4-(4-(6-(4,4-difluoropiperidin-1-yl)-5-fluoropyridin-2-yl)-1H-1,2,3-triazol-1-yl)-3-(6-azaspiro[2.5]octan-6-yl)phenyl)methanesulfonamide]	21
CS(=O)(=O)Nc1ccc(-n2cc(-c3cccc(N4CCC(F)(F)CC4)n3)nn2)c(N2CCC3(CC2)CC3)n1 [Compound 46, N-(5-(4-(6-(4,4-difluoropiperidin-1-yl)pyridin-2-yl)-1H-1,2,3-triazol-1-yl)-6-(6-azaspiro[2.5]octan-6-yl)pyridin-2-yl)methanesulfonamide]	9.1
O=S(=O)(CCO)Nc1ccc(-n2cc(-c3csc(N4CCC(F)(F)CC4)n3)nn2)c(N2CCCCC2)c1 [Compound 86, N-(4-(4-(2-(4,4-difluoropiperidin-1-yl)thiazol-4-yl)-1H-1,2,3-triazol-1-yl)-3-(piperidin-1-yl)phenyl)-2-hydroxyethane-1-sulfonamide]	27
CC(CO)S(=O)(=O)Nc1ccc(-n2cc(-c3cccc(N4CCC(F)(F)CC4)n3)nn2)c(N2CCC3(CC2)CC3)c1 (centres unmarked) [Compound 85, N-(4-(4-(6-(4,4-difluoropiperidin-1-yl)pyridin-2-yl)-1H-1,2,3-triazol-1-yl)-3-(6-azaspiro[2.5]octan-6-yl)phenyl)-1-hydroxypropane-2-sulfonamide]	11

The remaining compounds from weak to strong by IC50, led by results:

IC50 [nM]	SMILES
2800	O=S(=O)(CCO)Nc1ccc(-c2cn(-c3cnn(C4CCC(F)(F)CC4)c3)nn2)c(N2CCC3(CC2)CC3)c1 [Compound 166, N-(4-(1-(1-(4,4-difluorocyclohexyl)-1H-pyrazol-4-yl)-1H-1,2,3-triazol-4-yl)-3-(6-azaspiro[2.5]octan-6-yl)phenyl)-2-hydroxyethane-1-sulfonamide]
98	CS(=O)(=O)Nc1ccc(-n2cc(-c3cccc4c3OC3(CCCCC3)O4)nn2)c(N2CCC3(CC2)CC3)c1 [Compound 128, N-(3-(6-azaspiro[2.5]octan-6-yl)-4-(4-(spiro[benzo[d][1,3]dioxole-2,1′-cyclohexan]-4-yl)-1H-1,2,3-triazol-1-yl)phenyl)methanesulfonamide]
71	O=S(=O)(CCO)Nc1ccc(-n2cc(-c3ccc(C4CCCC4)o3)nn2)c(N2CCC3(CC2)CC3)c1 [Compound 126, N-(4-(4-(5-cyclopentylfuran-2-yl)-1H-1,2,3-triazol-1-yl)-3-(6-azaspiro[2.5]octan-6-yl)phenyl)-2-hydroxyethane-1-sulfonamide]
26	CCS(=O)(=O)Nc1ccc(-n2cc(-c3cc(C)cc(C(O)C4CCCC4)n3)nn2)c(N2CCC3(CC2)CC3)c1 (centres unmarked) [Compound 138, N-(4-(4-(6-(cyclopentyl(hydroxy)methyl)-4-methylpyridin-2-yl)-1H-1,2,3-triazol-1-yl)-3-(6-azaspiro[2.5]octan-6-yl)phenyl)ethanesulfonamide]
25	Cc1cc(-c2nnc(-c3ccc(NS(C)(=O)=O)cc3N3CCC4(CC3)CC4)[nH]2)nc(N2CCOCC2)n1 [Compound 6, N-(4-(5-(6-methyl-2-morpholinopyrimidin-4-yl)-4H-1,2,4-triazol-3-yl)-3-(6-azaspiro[2.5]octan-6-yl)phenyl)methanesulfonamide]
23	O=S(=O)(CCO)Nc1ccc(-c2cn(-c3cccc(OC4CCCC4)n3)nn2)c(N2CCC3(CC2)CC3)c1 [Compound 113, N-(4-(1-(6-(cyclopentyloxy)pyridin-2-yl)-1H-1,2,3-triazol-4-yl)-3-(6-azaspiro[2.5]octan-6-yl)phenyl)-2-hydroxyethane-1-sulfonamide]
17	CC1CCN(c2cc(NS(=O)(=O)CCO)ccc2-c2cn(-c3ccc(F)c(N4CCC(F)(F)CC4)n3)nn2)CC1 [Compound 141, N-(4-(1-(6-(4,4-difluoropiperidin-1-yl)-5-fluoropyridin-2-yl)-1H-1,2,3-triazol-4-yl)-3-(4-methylpiperidin-1-yl)phenyl)-2-hydroxyethane-1-sulfonamide]
17	O=S(=O)(CCO)Nc1ccc(-n2cc(-c3cc(F)cc(N4CCC(F)(F)CC4)n3)nn2)c(N2CCC3(CC2)CC3)c1 [Compound 78, N-(4-(4-(6-(4,4-difluoropiperidin-1-yl)-4-fluoropyridin-2-yl)-1H-1,2,3-triazol-1-yl)-3-(6-azaspiro[2.5]octan-6-yl)phenyl)-2-hydroxyethane-1-sulfonamide]
14	CS(=O)(=O)Nc1ccc(-n2cc(-c3nccc(N4CCC(F)(F)CC4)n3)cn2)c(N2CCC3(CC2)CC3)c1 [Compound 66, N-(4-(4-(4-(4,4-difluoropiperidin-1-yl)pyrimidin-2-yl)-1H-pyrazol-1-yl)-3-(6-azaspiro[2.5]octan-6-yl)phenyl)methanesulfonamide]
13	CC1CN(c2cccc(-c3cn(-c4ccc(NS(C)(=O)=O)cc4N4CCC5(CC4)CC5)nn3)n2)CCO1 (centres unmarked) [Compound 56, N-(4-(4-(6-(2-methylmorpholino)pyridin-2-yl)-1H-1,2,3-triazol-1-yl)-3-(6-azaspiro[2.5]octan-6-yl)phenyl)methanesulfonamide]
12	Cc1cc(-c2cn(-c3ccc(NS(=O)(=O)CCO)cc3N3CCC4(CC3)CC4)nn2)nc(N2CCCC2)n1 [Compound 98, 2-hydroxy-N-(4-(4-(6-methyl-2-(pyrrolidin-1-yl)pyrimidin-4-yl)-1H-1,2,3-triazol-1-yl)-3-(6-azaspiro[2.5]octan-6-yl)phenyl)ethane-1-sulfonamide]
9.6	O=C(c1ccc(-c2cn(-c3ccc(NS(=O)(=O)CCO)cc3N3CCC4(CC3)CC4)nn2)o1)C1CCCC1 [Compound 92, N-(4-(4-(5-(cyclopentanecarbonyl)furan-2-yl)-1H-1,2,3-triazol-1-yl)-3-(6-azaspiro[2.5]octan-6-yl)phenyl)-2-hydroxyethane-1-sulfonamide]
8.2	O=S(=O)(CCO)Nc1ccc(-n2cc(-c3ccn(C4CCC(F)(F)CC4)n3)nn2)c(N2CCC3(CC2)CC3)c1 [Compound 84, N-(4-(4-(1-(4,4-difluorocyclohexyl)-1H-pyrazol-3-yl)-1H-1,2,3-triazol-1-yl)-3-(6-azaspiro[2.5]octan-6-yl)phenyl)-2-hydroxyethane-1-sulfonamide]
4.4	O=S(=O)(CCO)Nc1ccc(-n2cc(-c3cc(CO)nc(N4CCC(F)(F)CC4)n3)nn2)c(N2CCC3(CC2)CC3)c1 [Compound 160, N-(4-(4-(2-(4,4-difluoropiperidin-1-yl)-6-(hydroxymethyl)pyrimidin-4-yl)-1H-1,2,3-triazol-1-yl)-3-(6-azaspiro[2.5]octan-6-yl)phenyl)-2-hydroxyethane-1-sulfonamide]
